pIC50: −log10 of the molar value.
The molecules below were run against T1, c-Raf (Homo sapiens, UniProt P04049) (assay: In vitro kinase assay: c-Raf HTRF assay with 6H-MEK as substrate). Settings: 6H-MEK substrate, dose response.
T1 construct: made in house; host or cells: baculovirus Hi5 insect cells, co-expressed with v-src-FLAG
Type: biochemical
Experimental: In vitro enzyme activity was determined with c-Raf using a HTRF assay with 6H-MEK as substrate (Dose Response).
The assay utilizes 6H-MEK as the substrate. Upon c-Raf phosphorylation, phosphorylated 6H-MEK is detected with rabbit anti-phospho-MEK1/2, Eu-labeled anti-rabbit, and APC-labeled anti-6H antibodies.
c-Raf enzyme was cloned human c-Raf with EE-tag and was phosphorylated (co-expressed with v-src-FLAG in baculovirus Hi5 cells), 0.2 mg/mL (2.74 μM assuming a molecular weight of 73 kD) and stored at −15° C. Wild-type full-length 6H-MEK was used as substrate, 4.94 mg/mL (154.4 μM assuming a MW of 32 kD) and stored at −15° C.
The following antibodies were used in the detection step: Rabbit α-P-(Ser 217/221)-MEK-1/2 Ab (from Cell Signaling, Cat. # 9121S, Lot 4); Eu-α-rabbit IgG (from Wallac, Cat. # AD0083, Lot 107557, labeling date Jun. 21, 2002, 8 Eu/protein, 580 μg/mL, 3.63 μM); α-6H-SureLight-APC (from Martek, Cat. #AD0059H, Lot E011ABO1, 3.15 μM).
Assays were read with Envision from PerkinElmer, HTRF reading mode with 412 mirrors.
Assays were performed with Costar 384 all-black plates, 120 μL (Cat. # 3710).
Test compounds were dispensed in Weidman 384 polypropylene plates (REMP).
Assay Procedure: • Prepare Kinase Assay Buffer (KAB): 50 mM HEPES (HyClone) pH7, 10 mM MgCl2, 1 mM DTT, 0.1 mM […], and 0.2 mg/mL BSA. • Prepare 6H-MEK (150 nM) in KAB. Add 40 μL/well to a Weidman plate. • Prepare ATP (66 μM) in KAB. • Prepare c-Raf (60 nM) in KAB. Add 25 μL/well to a Weidman plate. • Dilute compounds to 2.4 mM in DMSO. Perform 10-point 3× dilution in DMSO. • Withdraw 2.5 ul/well of DMSO solution and add to 27.5 μL/well ATP solution in (3). • Add 12 μL/well 6H-MEK to the assay plate on the Cybiwell, followed by 6 μL/well of solution in (5) and 6 μL/well of solution in (4) for a DMSO concentration of 2.1% during MEK phosphorylation. • Incubate at 37° C. for 30 minutes. • Prepare rabbit α-P-(Ser 217/221)-MEK-1/2 Ab (1:225 from stock) in AB1: 50 mM HEPES pH7, 0.2 mg/mL BSA, and 53 mM EDTA. • To stop reaction, add 6 μL/well of solution from (8) to the assay plate and incubate at 37° C. for 30 minutes. • Prepare Eu-α-rabbit IgG (9 nM) and α-6H-SureLight-APC (120 nM) in AB2: 50 mM HEPES pH7 and 0.2 mg/mL BSA. • Add 6 μL/well of solution from (10) to the assay plate. • For determining the spectrum cross talk factor, prepare 2 samples following steps (6) to (9). For the blank sample, add 6 μL/well of AB2. For the cross talk factor sample, add 6 μL/well of Eu-anti rabbit IgG (9 nM). • Incubate at 37° C. for 1 hour.
Read HTRF signals at 615 nm and 665 nm on the Envision. Normalize HTRF signals after spectrum cross-talk correction.

T1 sequence (P04049 whole entry): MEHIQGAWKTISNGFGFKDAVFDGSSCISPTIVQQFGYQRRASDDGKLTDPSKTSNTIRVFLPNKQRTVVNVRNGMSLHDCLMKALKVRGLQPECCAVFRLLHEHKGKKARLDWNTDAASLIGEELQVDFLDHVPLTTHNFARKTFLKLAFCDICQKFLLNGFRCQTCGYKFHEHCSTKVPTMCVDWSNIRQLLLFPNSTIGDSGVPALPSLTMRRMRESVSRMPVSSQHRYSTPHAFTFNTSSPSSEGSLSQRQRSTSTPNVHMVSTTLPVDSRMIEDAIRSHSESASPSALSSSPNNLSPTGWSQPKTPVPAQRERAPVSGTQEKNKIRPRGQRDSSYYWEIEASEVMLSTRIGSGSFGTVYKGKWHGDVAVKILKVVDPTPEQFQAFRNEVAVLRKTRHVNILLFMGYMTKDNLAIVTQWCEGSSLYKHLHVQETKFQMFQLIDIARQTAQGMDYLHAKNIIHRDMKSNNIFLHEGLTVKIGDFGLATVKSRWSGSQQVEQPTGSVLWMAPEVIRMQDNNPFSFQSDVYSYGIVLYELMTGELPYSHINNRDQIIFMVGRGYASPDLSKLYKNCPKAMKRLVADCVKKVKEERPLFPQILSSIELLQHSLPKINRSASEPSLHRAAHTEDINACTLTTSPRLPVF

Row | pIC50 | SMILES
1 | 6.08 | CCOC(=O)c1cnc(N)c2c(COc3cccc(OCc4ccccc4)c3)csc12 [Example 2, 4-Amino-3-(3-benzyloxy-phenoxymethyl)-thieno[3,2-c]pyridine-7-carboxylic acid ethyl ester]
2 | 7.66 | Nc1ncc(C(=O)NCCO)c2scc(COc3cccc(OCc4cccc(Cl)c4)c3)c12 [Example 7, 4-Amino-3-[3-(3-chloro-benzyloxy)-phenoxymethyl]-thieno[3,2-c]pyridine-7-carboxylic acid (2-hydroxy-ethyl)-amide]
3 | 5.70 | CCOC(=O)c1cnc(N)c2c(COc3cccc(OCc4cccc(OC)c4)c3)csc12 [Example 14, 4-Amino-3-[3-(3-methoxy-benzyloxy)-phenoxymethyl]-thieno[3,2-c]pyridine-7-carboxylic acid ethyl ester]
4 | 6.49 | CCOC(=O)c1cnc(N)c2c(COc3cccc(OCc4ccc(OC)c(C(F)(F)F)c4)c3)csc12 [Example 18, 4-Amino-3-[3-(4-methoxy-3-trifluoromethyl-benzyloxy)-phenoxymethyl]-thieno[3,2-c]pyridine-7-carboxylic acid ethyl ester]

Reference: patent publication US20070060607A1, “4-amino-thieno[3,2-c] pyridine-7-carboxylic acid derivatives” (priority 2005, published 2007)
